Data on one compound can be found in the NIST ThermoML archive (doi:10.1021/acs.jced.7b00665).

Numbers after ± are expanded uncertainties.

The nature of data set [1]: Molar enthalpy of transition or fusion. Conditions: Crystal; DSC.
For data set [2] the following is noted: Crystal; DTA.

As for `OC/C=C/c1ccccc1` [trans-cinnamyl alcohol], the “Molar enthalpy of transition or fusion” value in data set [1] came to 3.28 ± 0.287 kcal/mol. In addition, the Normal melting temperature in data set [2] turned out to be 32.47 ± 0.61 °C.
